≈ marks a conversion by molar mass, not a printed value.
Columns and labels:
Format in all cases: functional
Candida albicans [1] = test: Anticandidal activity against Candida albicans 15T after 24 hrs by spectrophotometry
Pichia kudriavzevii [2] = test: Anticandidal activity against Candida krusei ATCC 14243 after 24 hrs by spectrophotometry; settings: ATCC 14243, 24 h
Candida albicans [3] = test: Anticandidal activity against Candida albicans ATCC 60193 after 24 hrs by spectrophotometry; settings: ATCC 60193, 24 h
Candida parapsilosis [4] = test: Anticandidal activity against Candida parapsilosis ATCC 34136 after 24 hrs by spectrophotometry; settings: Lodderomyces parapsilosis, ATCC 34136, 24 h
Candida albicans [5] = test: Anticandidal activity against Candida albicans 4T after 24 hrs by spectrophotometry
Nakaseomyces glabratus = test: Anticandidal activity against Candida glabrata 70E after 24 hrs by spectrophotometry
Candida parapsilosis [6] = test: Anticandidal activity against Candida parapsilosis 64E after 24 hrs by spectrophotometry; settings: Lodderomyces parapsilosis
Candida albicans [7] = test: Anticandidal activity against Candida albicans 53T after 24 hrs by spectrophotometry
Candida tropicalis = test: Anticandidal activity against Candida tropicalis 86E after 24 hrs by spectrophotometry
Pichia kudriavzevii [8] = test: Anticandidal activity against Candida krusei 193T after 24 hrs by spectrophotometry
Candida parapsilosis [9] = test: Anticandidal activity against Candida parapsilosis 81E after 24 hrs by spectrophotometry; settings: Lodderomyces parapsilosis

**Q.** How did the MIC (Candida albicans [1]) turn out when `C=C(C)CNC(=N)NCCCCCCCCN1CCCCCCCCNC(=N)NC1=O` was run?
**A.** 20 µM (≈ 8.71 µg/mL)

**Q.** What about the MIC (Pichia kudriavzevii [2]) of the same molecule?
**A.** 40 µM (≈ 17.4 µg/mL)

**Q.** What about the MIC (Candida albicans [3]) of the same molecule?
**A.** 20 µM (≈ 8.71 µg/mL)

**Q.** What about the MIC (Candida parapsilosis [4]) of the same molecule?
**A.** > 80 µM

**Q.** What about the MIC (Candida albicans [5]) of the same molecule?
**A.** 40 µM (≈ 17.4 µg/mL)

**Q.** What about the MIC (Nakaseomyces glabratus) of the same molecule?
**A.** 80 µM (≈ 34.9 µg/mL)

**Q.** What about the MIC (Candida parapsilosis [6]) of the same molecule?
**A.** > 80 µM

**Q.** What about the MIC (Candida albicans [7]) of the same molecule?
**A.** 40 µM (≈ 17.4 µg/mL)

**Q.** And the MIC (Candida tropicalis)?
**A.** 40 µM (≈ 17.4 µg/mL)

**Q.** What about the MIC (Pichia kudriavzevii [8]) of the same molecule?
**A.** 80 µM (≈ 34.9 µg/mL)

**Q.** What about the MIC (Candida parapsilosis [9]) of the same molecule?
**A.** > 80 µM

**Q.** Which MIC (Candida albicans [1]) does the source give for `CC(C)=CCNC(=N)NCCCCCCCCNCCCCCCCCNC(=N)N` here?
**A.** 40 µM (≈ 16.9 µg/mL)

**Q.** What about the MIC (Pichia kudriavzevii [2]) of the same molecule?
**A.** 40 µM (≈ 16.9 µg/mL)

**Q.** And the MIC (Candida albicans [3])?
**A.** 80 µM (≈ 33.9 µg/mL)

**Q.** And the MIC (Candida parapsilosis [4])?
**A.** > 80 µM

**Q.** What about the MIC (Candida albicans [5]) of the same molecule?
**A.** 80 µM (≈ 33.9 µg/mL)

**Q.** And the MIC (Nakaseomyces glabratus)?
**A.** 80 µM (≈ 33.9 µg/mL)

**Q.** And the MIC (Candida parapsilosis [6])?
**A.** > 80 µM

**Q.** What about the MIC (Candida albicans [7]) of the same molecule?
**A.** 80 µM (≈ 33.9 µg/mL)

**Q.** And the MIC (Candida tropicalis)?
**A.** 20 µM (≈ 8.47 µg/mL)

**Q.** What about the MIC (Pichia kudriavzevii [8]) of the same molecule?
**A.** 20 µM (≈ 8.47 µg/mL)

**Q.** And the MIC (Candida parapsilosis [9])?
**A.** 40 µM (≈ 16.9 µg/mL)

**Q.** How did the MIC (Candida albicans [1]) turn out when `OC(Cn1cncn1)(Cn1cncn1)c1ccc(F)cc1F` [FLUCONAZOLE] was run?
**A.** 209 µM (≈ 64 µg/mL)

**Q.** And the MIC (Pichia kudriavzevii [2])?
**A.** 209 µM (≈ 64 µg/mL)

**Q.** And the MIC (Candida albicans [3])?
**A.** 0.8 µM (≈ 0.245 µg/mL)

**Q.** What about the MIC (Candida parapsilosis [4]) of the same molecule?
**A.** 6.5 µM (≈ 1.99 µg/mL)

**Q.** And the MIC (Candida albicans [5])?
**A.** 209 µM (≈ 64 µg/mL)

**Q.** And the MIC (Nakaseomyces glabratus)?
**A.** 209 µM (≈ 64 µg/mL)

**Q.** What about the MIC (Candida parapsilosis [6]) of the same molecule?
**A.** 32 µM (≈ 9.8 µg/mL)

**Q.** And the MIC (Candida albicans [7])?
**A.** 418 µM (≈ 128 µg/mL)

**Q.** What about the MIC (Candida tropicalis) of the same molecule?
**A.** 52 µM (≈ 15.9 µg/mL)

**Q.** And the MIC (Pichia kudriavzevii [8])?
**A.** 418 µM (≈ 128 µg/mL)

**Q.** And the MIC (Candida parapsilosis [9])?
**A.** 13 µM (≈ 3.98 µg/mL)

**Q.** For `N=C(N)NCCCCCCCCNCCCCCCCCNC(=N)N` [IMINOCTADIENE], which MIC (Candida albicans [1]) is on record?
**A.** 80 µM (≈ 28.4 µg/mL)

**Q.** And the MIC (Pichia kudriavzevii [2])?
**A.** 20 µM (≈ 7.11 µg/mL)

**Q.** What about the MIC (Candida albicans [3]) of the same molecule?
**A.** 80 µM (≈ 28.4 µg/mL)

**Q.** What about the MIC (Candida parapsilosis [4]) of the same molecule?
**A.** > 80 µM

**Q.** And the MIC (Candida albicans [5])?
**A.** 80 µM (≈ 28.4 µg/mL)

**Q.** And the MIC (Nakaseomyces glabratus)?
**A.** 40 µM (≈ 14.2 µg/mL)

**Q.** What about the MIC (Candida parapsilosis [6]) of the same molecule?
**A.** 40 µM (≈ 14.2 µg/mL)

**Q.** And the MIC (Candida albicans [7])?
**A.** 40 µM (≈ 14.2 µg/mL)

**Q.** And the MIC (Candida tropicalis)?
**A.** 1.25 µM (≈ 0.444 µg/mL)

**Q.** And the MIC (Pichia kudriavzevii [8])?
**A.** 20 µM (≈ 7.11 µg/mL)

**Q.** And the MIC (Candida parapsilosis [9])?
**A.** 20 µM (≈ 7.11 µg/mL)

**Q.** Which results are given for `N=C(NCCCCCCCCN1CCCCCCCCNC(=N)NC1=O)NCc1ccccc1`?
**A.** MIC (Candida albicans [1]): 5 µM (≈ 2.36 µg/mL); MIC (Pichia kudriavzevii [2]): 20 µM (≈ 9.43 µg/mL); MIC (Candida albicans [3]): 2.5 µM (≈ 1.18 µg/mL); MIC (Candida parapsilosis [4]): 80 µM (≈ 37.7 µg/mL); MIC (Candida albicans [5]): 2.5 µM (≈ 1.18 µg/mL); MIC (Nakaseomyces glabratus): 40 µM (≈ 18.9 µg/mL); MIC (Candida parapsilosis [6]): 20 µM (≈ 9.43 µg/mL); MIC (Candida albicans [7]): 2.5 µM (≈ 1.18 µg/mL); MIC (Candida tropicalis): 2.5 µM (≈ 1.18 µg/mL); MIC (Pichia kudriavzevii [8]): 10 µM (≈ 4.72 µg/mL); MIC (Candida parapsilosis [9]): 20 µM (≈ 9.43 µg/mL)

**Q.** For `CC(C)=CCNC(=N)NCCCCCCCCN1CCCCCCCCNC(=N)NC1=O`, which MIC (Candida albicans [1]) is on record?
**A.** 20 µM (≈ 8.99 µg/mL)

**Q.** And the MIC (Pichia kudriavzevii [2])?
**A.** 10 µM (≈ 4.5 µg/mL)

**Q.** And the MIC (Candida albicans [3])?
**A.** 40 µM (≈ 18 µg/mL)

**Q.** And the MIC (Candida parapsilosis [4])?
**A.** > 80 µM

**Q.** What about the MIC (Candida albicans [5]) of the same molecule?
**A.** 20 µM (≈ 8.99 µg/mL)

**Q.** What about the MIC (Nakaseomyces glabratus) of the same molecule?
**A.** 80 µM (≈ 36 µg/mL)

**Q.** What about the MIC (Candida parapsilosis [6]) of the same molecule?
**A.** > 80 µM

**Q.** What about the MIC (Candida albicans [7]) of the same molecule?
**A.** 20 µM (≈ 8.99 µg/mL)

**Q.** And the MIC (Candida tropicalis)?
**A.** 20 µM (≈ 8.99 µg/mL)

**Q.** What about the MIC (Pichia kudriavzevii [8]) of the same molecule?
**A.** 20 µM (≈ 8.99 µg/mL)

**Q.** What about the MIC (Candida parapsilosis [9]) of the same molecule?
**A.** 40 µM (≈ 18 µg/mL)
